Measured values taken from the kinase profiling compilation of Christmann-Franck et al. (2016).

How the values were obtained:
Experiment in all cases: radiometric filter-binding kinase assay, Kinase HotSpot
Settings in all cases: compound 0.5 µM; ATP 10 µM
ABL2 (human) = ABL2 (human) (UniProt P42684)
AKT2 (human) = AKT2 (human) (UniProt P31751)
CAMKK1 (human) = CAMKK1 (human) (UniProt Q8N5S9)
CDK1 CCNB1 (human) = CDK1 CCNB1 (human) (UniProt P06493+P14635)
CDK5 CDK5R1 p35 (human) = CDK5 CDK5R1 p35 (human) (UniProt Q00535+Q15078)
CLK4 (human) = CLK4 (human) (UniProt Q9HAZ1)
CSNK2A2 (human) = CSNK2A2 (human) (UniProt P19784)
DYRK1A (human) = DYRK1A (human) (UniProt Q13627)
EPHA7 (human) = EPHA7 (human) (UniProt Q15375)
Sequence of EPHA7 (human) (Q15375 whole entry, looked up): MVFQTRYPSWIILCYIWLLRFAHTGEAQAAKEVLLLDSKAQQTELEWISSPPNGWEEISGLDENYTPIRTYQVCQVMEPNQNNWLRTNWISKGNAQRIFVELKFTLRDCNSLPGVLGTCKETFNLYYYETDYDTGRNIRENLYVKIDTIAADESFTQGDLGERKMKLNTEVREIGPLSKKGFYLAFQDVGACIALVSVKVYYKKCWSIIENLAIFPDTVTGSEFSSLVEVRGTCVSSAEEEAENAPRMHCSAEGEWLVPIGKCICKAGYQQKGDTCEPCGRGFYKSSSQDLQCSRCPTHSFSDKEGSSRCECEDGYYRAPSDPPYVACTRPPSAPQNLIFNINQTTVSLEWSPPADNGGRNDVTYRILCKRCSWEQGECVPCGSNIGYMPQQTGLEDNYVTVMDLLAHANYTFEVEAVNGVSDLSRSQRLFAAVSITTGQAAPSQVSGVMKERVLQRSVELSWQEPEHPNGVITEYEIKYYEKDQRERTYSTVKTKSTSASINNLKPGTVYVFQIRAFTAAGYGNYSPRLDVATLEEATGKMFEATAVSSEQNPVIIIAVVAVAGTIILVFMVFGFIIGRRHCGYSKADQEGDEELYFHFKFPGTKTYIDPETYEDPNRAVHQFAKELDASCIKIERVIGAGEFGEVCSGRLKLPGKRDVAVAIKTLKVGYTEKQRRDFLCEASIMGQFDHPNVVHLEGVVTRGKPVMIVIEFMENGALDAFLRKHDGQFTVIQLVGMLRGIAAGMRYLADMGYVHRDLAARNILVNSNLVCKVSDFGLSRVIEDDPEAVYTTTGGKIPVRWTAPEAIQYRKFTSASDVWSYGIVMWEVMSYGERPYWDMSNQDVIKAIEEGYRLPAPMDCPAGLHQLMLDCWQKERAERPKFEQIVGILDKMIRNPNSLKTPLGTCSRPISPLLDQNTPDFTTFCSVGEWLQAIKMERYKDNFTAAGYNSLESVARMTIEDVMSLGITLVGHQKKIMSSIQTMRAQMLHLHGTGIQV

EPHB1 (human) = EPHB1 (human) (UniProt P54762)
FGFR1 (human) = FGFR1 (human) (UniProt P11362)
FGFR4 (human) = FGFR4 (human) (UniProt P22455)
FLT1 (human) = FLT1 (human) (UniProt P17948)
IGF1R (human) = IGF1R (human) (UniProt P08069)
INSR (human) = INSR (human) (UniProt P06213)
LIMK1 (human) = LIMK1 (human) (UniProt P53667)
LRRK2 (human) = LRRK2 (human) (UniProt Q5S007)
MAP4K2 (human) = MAP4K2 (human) (UniProt Q12851)
MAPK10 (human) = MAPK10 (human) (UniProt P53779)
Sequence of MAPK10 (human) (P53779 whole entry, looked up): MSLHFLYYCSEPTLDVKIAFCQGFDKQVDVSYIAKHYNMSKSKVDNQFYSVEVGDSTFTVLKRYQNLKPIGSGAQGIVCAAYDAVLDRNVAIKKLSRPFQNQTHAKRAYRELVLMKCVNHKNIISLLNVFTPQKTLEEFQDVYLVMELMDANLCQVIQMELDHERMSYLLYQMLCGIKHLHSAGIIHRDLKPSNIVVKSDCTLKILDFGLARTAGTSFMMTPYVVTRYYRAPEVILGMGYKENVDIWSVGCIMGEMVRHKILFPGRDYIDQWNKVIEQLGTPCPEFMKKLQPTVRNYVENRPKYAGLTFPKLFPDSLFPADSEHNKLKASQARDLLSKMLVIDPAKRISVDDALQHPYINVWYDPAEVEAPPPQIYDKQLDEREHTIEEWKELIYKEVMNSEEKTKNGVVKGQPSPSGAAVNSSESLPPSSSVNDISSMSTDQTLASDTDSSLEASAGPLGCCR

MAPK14 (human) = MAPK14 (human) (UniProt Q16539)
MARK3 (human) = MARK3 (human) (UniProt P27448)
NEK11 (human) = NEK11 (human) (UniProt Q8NG66)
NTRK2 (human) = NTRK2 (human) (UniProt Q16620)
Sequence of NTRK2 (human) (Q16620 whole entry, looked up): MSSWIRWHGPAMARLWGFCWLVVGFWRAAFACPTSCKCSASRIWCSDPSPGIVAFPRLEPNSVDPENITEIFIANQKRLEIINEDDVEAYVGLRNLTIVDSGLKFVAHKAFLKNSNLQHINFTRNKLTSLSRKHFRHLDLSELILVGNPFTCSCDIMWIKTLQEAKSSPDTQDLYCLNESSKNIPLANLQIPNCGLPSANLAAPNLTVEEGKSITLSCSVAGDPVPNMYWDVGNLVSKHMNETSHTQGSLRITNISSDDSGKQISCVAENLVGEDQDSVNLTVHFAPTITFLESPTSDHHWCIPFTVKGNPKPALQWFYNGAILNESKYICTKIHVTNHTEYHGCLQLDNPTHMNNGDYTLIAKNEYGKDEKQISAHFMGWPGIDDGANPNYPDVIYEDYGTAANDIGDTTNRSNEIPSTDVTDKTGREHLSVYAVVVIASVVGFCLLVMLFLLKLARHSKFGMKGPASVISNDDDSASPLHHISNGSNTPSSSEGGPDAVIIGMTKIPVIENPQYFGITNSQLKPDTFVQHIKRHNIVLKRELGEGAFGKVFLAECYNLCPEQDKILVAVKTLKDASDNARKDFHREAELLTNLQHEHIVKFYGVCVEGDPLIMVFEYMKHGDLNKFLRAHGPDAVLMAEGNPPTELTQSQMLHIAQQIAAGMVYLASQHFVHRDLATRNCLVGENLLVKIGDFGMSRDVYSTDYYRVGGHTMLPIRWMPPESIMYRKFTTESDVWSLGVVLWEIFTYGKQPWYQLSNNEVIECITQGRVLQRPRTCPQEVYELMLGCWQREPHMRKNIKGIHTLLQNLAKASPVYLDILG

NUAK1 (human) = NUAK1 (human) (UniProt O60285)
PAK7 (human) = PAK7 (human) (UniProt Q9P286)
Sequence of PAK7 (human) (Q9P286 whole entry, looked up): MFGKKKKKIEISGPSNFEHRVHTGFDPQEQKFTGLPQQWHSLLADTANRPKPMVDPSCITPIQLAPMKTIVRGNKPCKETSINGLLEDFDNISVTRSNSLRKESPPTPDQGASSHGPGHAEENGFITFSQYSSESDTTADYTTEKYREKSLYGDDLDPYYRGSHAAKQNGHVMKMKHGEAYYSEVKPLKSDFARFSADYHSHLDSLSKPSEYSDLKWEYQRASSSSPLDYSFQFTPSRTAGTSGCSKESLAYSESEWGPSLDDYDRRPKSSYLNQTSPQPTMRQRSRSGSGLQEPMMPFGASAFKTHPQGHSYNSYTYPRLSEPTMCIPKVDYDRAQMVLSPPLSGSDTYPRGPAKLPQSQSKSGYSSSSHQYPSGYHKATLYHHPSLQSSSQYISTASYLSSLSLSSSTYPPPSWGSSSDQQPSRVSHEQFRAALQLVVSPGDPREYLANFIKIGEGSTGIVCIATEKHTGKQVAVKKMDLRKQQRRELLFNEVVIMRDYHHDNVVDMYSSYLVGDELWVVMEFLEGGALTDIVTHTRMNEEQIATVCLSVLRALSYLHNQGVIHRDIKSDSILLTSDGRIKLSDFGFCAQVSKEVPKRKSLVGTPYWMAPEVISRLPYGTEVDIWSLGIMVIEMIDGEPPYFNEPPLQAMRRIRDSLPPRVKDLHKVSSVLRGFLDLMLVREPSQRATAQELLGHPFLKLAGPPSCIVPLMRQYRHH

PASK (human) = PASK (human) (UniProt Q96RG2)
PKN1 (human) = PKN1 (human) (UniProt Q16512)
PRKACA (human) = PRKACA (human) (UniProt P17612)
PRKD1 (human) = PRKD1 (human) (UniProt Q15139)
RPS6KA1 KD1 KD2 (human) = RPS6KA1 KD1 KD2 (human) (UniProt Q15418)
RPS6KA6 KD1 KD2 (human) = RPS6KA6 KD1 KD2 (human) (UniProt Q9UK32)
RPS6KB1 (human) = RPS6KB1 (human) (UniProt P23443)
Sequence of RPS6KB1 (human) (P23443 whole entry, looked up): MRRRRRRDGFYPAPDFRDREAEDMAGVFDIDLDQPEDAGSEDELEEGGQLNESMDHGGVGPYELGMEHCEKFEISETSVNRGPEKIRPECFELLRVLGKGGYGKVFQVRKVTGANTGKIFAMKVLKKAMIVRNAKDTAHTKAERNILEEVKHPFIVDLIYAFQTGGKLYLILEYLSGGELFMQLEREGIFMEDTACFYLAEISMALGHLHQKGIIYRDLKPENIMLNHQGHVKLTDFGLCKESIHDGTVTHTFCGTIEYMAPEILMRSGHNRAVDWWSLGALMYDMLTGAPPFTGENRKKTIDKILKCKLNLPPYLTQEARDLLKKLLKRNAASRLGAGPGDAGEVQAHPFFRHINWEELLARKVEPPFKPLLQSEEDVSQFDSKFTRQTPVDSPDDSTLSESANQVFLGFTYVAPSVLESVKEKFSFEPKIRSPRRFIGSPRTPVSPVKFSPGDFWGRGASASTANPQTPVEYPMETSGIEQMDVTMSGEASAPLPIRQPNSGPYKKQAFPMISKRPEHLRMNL

STK10 (human) = STK10 (human) (UniProt O94804)
STK16 (human) = STK16 (human) (UniProt O75716)
Sequence of STK16 (human) (O75716 whole entry, looked up): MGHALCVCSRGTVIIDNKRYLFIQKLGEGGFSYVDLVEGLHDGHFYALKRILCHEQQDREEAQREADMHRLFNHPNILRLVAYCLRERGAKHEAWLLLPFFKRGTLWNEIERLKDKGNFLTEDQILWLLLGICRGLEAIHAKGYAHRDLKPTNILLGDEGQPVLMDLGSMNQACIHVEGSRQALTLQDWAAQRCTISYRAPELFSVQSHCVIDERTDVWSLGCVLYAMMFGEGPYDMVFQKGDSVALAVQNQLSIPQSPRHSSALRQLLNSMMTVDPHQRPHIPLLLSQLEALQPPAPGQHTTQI

TAOK1 (human) = TAOK1 (human) (UniProt Q7L7X3)
TAOK3 (human) = TAOK3 (human) (UniProt Q9H2K8)
TNK2 (human) = TNK2 (human) (UniProt Q07912)
TSSK1B (human) = TSSK1B (human) (UniProt Q9BXA7)
TXK (human) = TXK (human) (UniProt P42681)
Sequence of TXK (human) (P42681 whole entry, looked up): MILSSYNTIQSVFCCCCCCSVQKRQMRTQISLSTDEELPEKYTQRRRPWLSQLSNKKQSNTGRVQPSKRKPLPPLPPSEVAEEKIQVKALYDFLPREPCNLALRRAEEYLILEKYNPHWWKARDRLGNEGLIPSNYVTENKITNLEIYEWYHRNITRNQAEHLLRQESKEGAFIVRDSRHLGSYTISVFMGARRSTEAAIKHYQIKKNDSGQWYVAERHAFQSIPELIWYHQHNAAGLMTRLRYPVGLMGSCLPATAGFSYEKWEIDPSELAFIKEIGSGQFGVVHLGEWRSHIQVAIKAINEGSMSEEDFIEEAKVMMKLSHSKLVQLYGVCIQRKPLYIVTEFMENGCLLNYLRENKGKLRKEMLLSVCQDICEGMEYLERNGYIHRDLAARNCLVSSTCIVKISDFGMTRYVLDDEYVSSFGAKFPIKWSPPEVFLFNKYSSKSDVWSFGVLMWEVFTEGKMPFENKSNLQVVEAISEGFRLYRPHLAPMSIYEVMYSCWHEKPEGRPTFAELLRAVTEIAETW

ZAP70 (human) = ZAP70 (human) (UniProt P43403)
Sequence of ZAP70 (human) (P43403 whole entry, looked up): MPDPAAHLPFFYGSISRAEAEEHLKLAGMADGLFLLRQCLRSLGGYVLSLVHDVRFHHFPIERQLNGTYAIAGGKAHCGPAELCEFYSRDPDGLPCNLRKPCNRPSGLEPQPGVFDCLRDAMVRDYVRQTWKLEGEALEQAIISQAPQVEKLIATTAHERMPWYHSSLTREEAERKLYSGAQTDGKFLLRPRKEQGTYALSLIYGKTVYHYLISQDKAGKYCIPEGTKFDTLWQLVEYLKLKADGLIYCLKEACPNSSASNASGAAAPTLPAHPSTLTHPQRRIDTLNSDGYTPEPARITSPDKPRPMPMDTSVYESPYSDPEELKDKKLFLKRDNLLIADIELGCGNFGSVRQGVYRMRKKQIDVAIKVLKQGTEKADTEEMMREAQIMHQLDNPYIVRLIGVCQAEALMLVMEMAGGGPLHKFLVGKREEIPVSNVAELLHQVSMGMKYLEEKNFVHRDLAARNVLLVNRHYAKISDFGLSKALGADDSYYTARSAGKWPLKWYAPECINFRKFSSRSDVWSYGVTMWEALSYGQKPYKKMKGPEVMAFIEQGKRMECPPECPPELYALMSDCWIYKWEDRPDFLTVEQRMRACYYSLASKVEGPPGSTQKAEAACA

ABL1 (human) = ABL1 (human) (UniProt P00519)
RAF1 (human) = RAF1 (human) (UniProt P04049)

## COc1cc2c(cc1OC)-c1[nH]nc(Nc3cccc(F)c3)c1C2
ABL2 (human)
  residual activity: 21.4%
AKT2 (human)
  residual activity: 95.3%
CAMKK1 (human)
  residual activity: 81.5%
CDK1 CCNB1 (human)
  residual activity: 101%
CDK5 CDK5R1 p35 (human)
  residual activity: 102%
CLK4 (human)
  residual activity: 77.7%
CSNK2A2 (human)
  residual activity: 105%
DYRK1A (human)
  residual activity: 90.3%
EPHA7 (human)
  residual activity: 98%
EPHB1 (human)
  residual activity: 100%
FGFR1 (human)
  residual activity: 99.2%
FGFR4 (human)
  residual activity: 91.6%
FLT1 (human)
  residual activity: 82.6%
IGF1R (human)
  residual activity: 93.9%
INSR (human)
  residual activity: 101%
LIMK1 (human)
  residual activity: 23.3%
LRRK2 (human)
  residual activity: 82.3%
MAP4K2 (human)
  residual activity: 103%
MAPK10 (human)
  residual activity: 102%
MAPK14 (human)
  residual activity: 94.3%
MARK3 (human)
  residual activity: 69.9%
NEK11 (human)
  residual activity: 98.9%
NTRK2 (human)
  residual activity: 102%
NUAK1 (human)
  residual activity: 88.5%
PAK7 (human)
  residual activity: 93.2%
PASK (human)
  residual activity: 93.3%
PKN1 (human)
  residual activity: 106%
PRKACA (human)
  residual activity: 92.8%
PRKD1 (human)
  residual activity: 93.6%
RPS6KA1 KD1 KD2 (human)
  residual activity: 84.1%
RPS6KA6 KD1 KD2 (human)
  residual activity: 93.6%
RPS6KB1 (human)
  residual activity: 99.1%
STK10 (human)
  residual activity: 89%
STK16 (human)
  residual activity: 96.8%
TAOK1 (human)
  residual activity: 76.3%
TAOK3 (human)
  residual activity: 91.5%
TNK2 (human)
  residual activity: 15.1%
TSSK1B (human)
  residual activity: 71.7%
TXK (human)
  residual activity: 60.6%
ZAP70 (human)
  residual activity: 95.3%

## O=c1cc(N2CCOCC2)oc2c(-c3ccccc3)cccc12
ABL1 (human)
  residual activity: 99.2%
ABL2 (human)
  residual activity: 98.1%
AKT2 (human)
  residual activity: 94%
CAMKK1 (human)
  residual activity: 105%
CDK1 CCNB1 (human)
  residual activity: 115%
CDK5 CDK5R1 p35 (human)
  residual activity: 107%
CLK4 (human)
  residual activity: 89.1%
CSNK2A2 (human)
  residual activity: 93.9%
DYRK1A (human)
  residual activity: 97.3%
EPHA7 (human)
  residual activity: 102%
EPHB1 (human)
  residual activity: 95.9%
FGFR1 (human)
  residual activity: 96.6%
FGFR4 (human)
  residual activity: 104%
IGF1R (human)
  residual activity: 102%
INSR (human)
  residual activity: 104%
LIMK1 (human)
  residual activity: 98.6%
LRRK2 (human)
  residual activity: 96.9%
MAP4K2 (human)
  residual activity: 87.8%
MAPK10 (human)
  residual activity: 87.1%
MAPK14 (human)
  residual activity: 87.7%
MARK3 (human)
  residual activity: 95.4%
NEK11 (human)
  residual activity: 102%
NTRK2 (human)
  residual activity: 112%
NUAK1 (human)
  residual activity: 92.5%
PAK7 (human)
  residual activity: 104%
PASK (human)
  residual activity: 90.2%
PKN1 (human)
  residual activity: 109%
PRKACA (human)
  residual activity: 98.3%
PRKD1 (human)
  residual activity: 98.3%
RAF1 (human)
  residual activity: 82.3%
RPS6KA1 KD1 KD2 (human)
  residual activity: 97.3%
RPS6KB1 (human)
  residual activity: 101%
STK10 (human)
  residual activity: 97.1%
STK16 (human)
  residual activity: 97.5%
TAOK1 (human)
  residual activity: 86.4%
TAOK3 (human)
  residual activity: 88.2%
TNK2 (human)
  residual activity: 88.7%
TSSK1B (human)
  residual activity: 101%
TXK (human)
  residual activity: 93.6%
ZAP70 (human)
  residual activity: 102%

## COc1cc2c(Nc3ccc(Br)cc3F)ncnc2cc1OCC1CCN(C)CC1
ABL2 (human)
  residual activity: 14%
AKT2 (human)
  residual activity: 110%
CAMKK1 (human)
  residual activity: 90.4%
CDK1 CCNB1 (human)
  residual activity: 102%
CDK5 CDK5R1 p35 (human)
  residual activity: 107%
CLK4 (human)
  residual activity: 84.3%
CSNK2A2 (human)
  residual activity: 96.5%
DYRK1A (human)
  residual activity: 106%
EPHA7 (human)
  residual activity: 31.8%
EPHB1 (human)
  residual activity: 27.8%
FGFR4 (human)
  residual activity: 90%
IGF1R (human)
  residual activity: 94.6%
INSR (human)
  residual activity: 102%
LIMK1 (human)
  residual activity: 88.1%
LRRK2 (human)
  residual activity: 113%
MAPK10 (human)
  residual activity: 96.9%
MAPK14 (human)
  residual activity: 91.8%
MARK3 (human)
  residual activity: 106%
NEK11 (human)
  residual activity: 103%
NTRK2 (human)
  residual activity: 93.2%
NUAK1 (human)
  residual activity: 92.7%
PAK7 (human)
  residual activity: 93.5%
PASK (human)
  residual activity: 102%
PKN1 (human)
  residual activity: 103%
PRKACA (human)
  residual activity: 92.8%
PRKD1 (human)
  residual activity: 99.3%
RAF1 (human)
  residual activity: 81.1%
RPS6KA1 KD1 KD2 (human)
  residual activity: 102%
RPS6KA6 KD1 KD2 (human)
  residual activity: 99.3%
STK10 (human)
  residual activity: 21.3%
STK16 (human)
  residual activity: 101%
TAOK1 (human)
  residual activity: 103%
TAOK3 (human)
  residual activity: 98.4%
TNK2 (human)
  residual activity: 85.4%
TSSK1B (human)
  residual activity: 96.6%
TXK (human)
  residual activity: 57.5%
ZAP70 (human)
  residual activity: 96.8%

## FC(F)(F)c1ccc(/C=C/c2nc(COc3ccc(CCCCn4ccnn4)cc3)co2)cc1
AKT2 (human)
  residual activity: 99.9%
CAMKK1 (human)
  residual activity: 96.7%
CDK1 CCNB1 (human)
  residual activity: 93.8%
CDK5 CDK5R1 p35 (human)
  residual activity: 99.4%
CLK4 (human)
  residual activity: 101%
CSNK2A2 (human)
  residual activity: 102%
DYRK1A (human)
  residual activity: 105%
EPHA7 (human)
  residual activity: 95.2%
EPHB1 (human)
  residual activity: 99.4%
FGFR1 (human)
  residual activity: 101%
FGFR4 (human)
  residual activity: 88.3%
FLT1 (human)
  residual activity: 95.5%
IGF1R (human)
  residual activity: 101%
INSR (human)
  residual activity: 99.6%
LIMK1 (human)
  residual activity: 99.2%
LRRK2 (human)
  residual activity: 94.8%
MAP4K2 (human)
  residual activity: 105%
MAPK10 (human)
  residual activity: 94.6%
MAPK14 (human)
  residual activity: 103%
MARK3 (human)
  residual activity: 96.6%
NEK11 (human)
  residual activity: 97.6%
NTRK2 (human)
  residual activity: 102%
NUAK1 (human)
  residual activity: 103%
PAK7 (human)
  residual activity: 89.4%
PASK (human)
  residual activity: 104%
PKN1 (human)
  residual activity: 97%
PRKACA (human)
  residual activity: 101%
PRKD1 (human)
  residual activity: 93.2%
RAF1 (human)
  residual activity: 97.1%
RPS6KA1 KD1 KD2 (human)
  residual activity: 97.9%
RPS6KA6 KD1 KD2 (human)
  residual activity: 100%
RPS6KB1 (human)
  residual activity: 105%
STK10 (human)
  residual activity: 92.6%
STK16 (human)
  residual activity: 104%
TAOK1 (human)
  residual activity: 102%
TAOK3 (human)
  residual activity: 93%
TSSK1B (human)
  residual activity: 93.4%
TXK (human)
  residual activity: 101%
ZAP70 (human)
  residual activity: 115%

## CN[C@@H]1C[C@H]2O[C@@](C)([C@@H]1OC)n1c3ccccc3c3c4c(c5c6ccccc6n2c5c31)C(=O)NC4
ABL2 (human)
  residual activity: 5.25%
CAMKK1 (human)
  residual activity: -3.13%
CDK5 CDK5R1 p35 (human)
  residual activity: 1.92%
CLK4 (human)
  residual activity: 6.62%
EPHB1 (human)
  residual activity: 12%
INSR (human)
  residual activity: 3.14%
PRKACA (human)
  residual activity: 1.93%
